The values below are quoted from earlier work in patent US20120289611A1, “PECTIN COMPOUNDS, METHODS OF USING PECTIN COMPOUNDS, AND METHODS OF CONTROLLING WATER SOLUBILITY” (priority 2009, published 2012).

SMILES strings stand for the structures. In brackets after ≈: the same amount, converted by molar mass. Entries after “also recorded” stand apart in the source; their conditions may differ. Where a name gives a salt, the structure may show the parent alone.

A word on the solubility: it is the concentration that dissolves in the medium under given conditions.

The conditions of one series: in water (where stated).
For the molecule `COc1ccccc1OCCNCC(O)COc1cccc2[nH]c3ccccc3c12` (centres unmarked) [Carvedilol], the solubility is 0.583 µg/mL (≈ 1.43 µM).

For `CN(C)CCCC1(c2ccc(F)cc2)OCc2cc(C#N)ccc21` (centres unmarked) [Citalopram Hydrobromide], the solubility is 31 µg/mL.

In the case of `COC(=O)[C@H](c1ccccc1Cl)N1CCc2sccc2C1` [Clopidogrel bisulphate], the solubility is 50.78 µg/mL.

Turning to `CCC(=O)O[C@]1(C(=O)SCF)[C@H](C)C[C@H]2[C@@H]3C[C@H](F)C4=CC(=O)C=C[C@]4(C)[C@@]3(F)[C@@H](O)C[C@@]21C` [Fluticasone propionate], the solubility was 0.51 µg/mL (≈ 1.02 µM).

As to `Cc1c(OCC(F)(F)F)ccnc1C[S+]([O-])c1nc2ccccc2[nH]1` (centres unmarked) [Lansoprazole], the solubility is 0.97 µg/mL (≈ 2.63 µM).

With `CCCCc1nc(Cl)c(CO)n1Cc1ccc(-c2ccccc2-c2nn[nH]n2)cc1` [Losartan], the solubility is 0.82 µg/mL (≈ 1.94 µM).

For the molecule `CCCCc1nc(Cl)c(CO)n1Cc1ccc(-c2ccccc2-c2nnn[n-]2)cc1.[K+]` [potassium losartan], the solubility is 0.82 µg/mL.

Still in this series, the particulars now being: organic solvent named in the value; hydrochloride.
Turning to `CCc1ccc(CCOc2ccc(CC3SC(=O)NC3=O)cc2)nc1` (centres unmarked) [Pioglitazone hydrochloride], the “solubility in words, other solvents” value was “slightly soluble in anhydrous ethanol; also recorded: very slightly soluble in acetone and acetonitrile; also recorded: insoluble in ether”.

Still in this series, the particulars now being: water, or solvent not stated.
Consider `COc1ccc2nc([S@@+]([O-])Cc3ncc(C)c(OC)c3C)[nH]c2c1` [Esomeprazole], for which the solubility in words result is “very slightly soluble in water”.

For `C[C@@H]1C[C@H]2[C@@H]3CCC4=CC(=O)C=C[C@]4(C)[C@@]3(Cl)[C@@H](O)C[C@]2(C)[C@@]1(OC(=O)c1ccco1)C(=O)CCl` [Mometasone furoate], the solubility in words result is given as “practically insoluble”.

In the case of `Cc1cc2c(s1)Nc1ccccc1N=C2N1CCN(C)CC1` [Olanzapine], the solubility in words result is listed as “practically insoluble in water”.

For `CCc1ccc(CCOc2ccc(CC3SC(=O)NC3=O)cc2)nc1` (centres unmarked) [Pioglitazone hydrochloride], the solubility in words result is recorded as “practically insoluble in water”.

In the case of `CCCc1nc2c(C)cc(-c3nc4ccccc4n3C)cc2n1Cc1ccc(-c2ccccc2C(=O)O)cc1` [Telmisartan], the solubility in words entry is given as “practically insoluble”.

`O=P(O)(O)C(O)(Cn1ccnc1)P(=O)(O)O` [Zoledronic acid monohydrate]: the solubility in words entry is recorded as “sparingly soluble”.
